Assay results published in ChEMBL document CHEMBL1144772, “Synthesis, in vitro pharmacology, and pharmacokinetic profiles of 2-[1-amino-1-carboxy-2-(9H-xanthen-9-yl)-ethyl]-1-fluorocyclopropanecarboxylic acid and its 6-heptyl ester, a potent mGluR2 antagonist” (Bioorg Med Chem, 2008).

Key:
[1] = Half life in Sprague-Dawley rat at 10 mg/kg, po; type: ADME, organism-based; set-up: dose 10 mg/kg, route oral; details: in vivo
[2] = Tmax in Sprague-Dawley rat at 10 mg/kg, po; type: ADME, organism-based; set-up: dose 10 mg/kg, route oral; details: in vivo
[3] = Transformation of (+)-17 to (+)-16a in monkey liver S9 fraction at 3 uM after 60 mins; details: rhesus monkey
[4] = AUC (0 to infinity) in Sprague-Dawley rat at 10 mg/kg, po; type: ADME, organism-based; set-up: dose 10 mg/kg, route oral, time infinity; details: plasma
[5] = Cmax in Sprague-Dawley rat at 10 mg/kg, po; type: ADME, organism-based; set-up: dose 10 mg/kg, route oral; details: in vivo
[6] = Transformation of (+)-17 to (+)-16a in human liver S9 fraction at 3 uM after 60 mins
[7] = Transformation of (+)-17 to (+)-16a in rat liver S9 fraction at 3 uM after 60 mins
[8] = target: Metabotropic glutamate receptor 2 (Homo sapiens, UniProt Q14416); experiment: Displacement of [3H]-MGS0008 from mGluR2 expressed in CHO cells; type: cell-based
Chain of Metabotropic glutamate receptor 2 (Q14416 whole entry): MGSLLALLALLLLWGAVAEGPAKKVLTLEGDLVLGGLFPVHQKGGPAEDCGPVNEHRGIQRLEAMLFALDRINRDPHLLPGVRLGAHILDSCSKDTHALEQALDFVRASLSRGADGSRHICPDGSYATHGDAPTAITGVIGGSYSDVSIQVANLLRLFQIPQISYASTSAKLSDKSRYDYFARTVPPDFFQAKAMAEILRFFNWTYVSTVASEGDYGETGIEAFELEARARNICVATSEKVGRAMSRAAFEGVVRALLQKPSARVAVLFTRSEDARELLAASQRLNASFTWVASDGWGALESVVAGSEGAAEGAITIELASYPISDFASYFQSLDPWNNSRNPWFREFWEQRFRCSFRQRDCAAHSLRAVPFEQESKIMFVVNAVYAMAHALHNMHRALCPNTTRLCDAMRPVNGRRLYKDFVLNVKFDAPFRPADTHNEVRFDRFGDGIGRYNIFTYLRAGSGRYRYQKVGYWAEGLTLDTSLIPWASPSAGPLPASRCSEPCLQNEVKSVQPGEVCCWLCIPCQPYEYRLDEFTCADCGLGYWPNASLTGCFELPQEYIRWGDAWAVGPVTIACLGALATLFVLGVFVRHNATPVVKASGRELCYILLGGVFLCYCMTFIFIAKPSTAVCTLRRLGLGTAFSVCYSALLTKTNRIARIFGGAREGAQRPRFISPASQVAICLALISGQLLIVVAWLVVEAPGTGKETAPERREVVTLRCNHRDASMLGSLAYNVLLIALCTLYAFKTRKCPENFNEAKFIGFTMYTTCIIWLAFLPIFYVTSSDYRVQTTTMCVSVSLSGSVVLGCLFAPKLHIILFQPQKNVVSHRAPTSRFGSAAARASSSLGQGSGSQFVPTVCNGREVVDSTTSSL

## CCCCCCCOC(=O)[C@@]1(F)C[C@@H]1[C@@](N)(CC1c2ccccc2Oc2ccccc21)C(=O)O
[1]
  half-life: 3.87 h
[2]
  Tmax: 2 h
[3]
  transformation ratio at 1 h, 3 µM: 7.3%
[4]
  AUC(0-inf): 78000 ng·h/mL
[5]
  Cmax: 8640 ng/mL
[6]
  transformation ratio at 1 h, 3 µM: 12.1%
[7]
  transformation ratio at 1 h, 3 µM: 68.1%

## N[C@](CC1c2ccccc2Oc2ccccc21)(C(=O)O)[C@H]1C[C@]1(F)C(=O)O
[1]
  half-life: 5.05 h
[2]
  Tmax: 2.67 h
[8]
  IC50: 3.49 nM
[4]
  AUC(0-inf): 3310 ng·h/mL
[5]
  Cmax: 308 ng/mL

## N[C@@](CC1c2ccccc2Oc2ccccc21)(C(=O)O)[C@@H]1C[C@@]1(F)C(=O)O
[8]
  IC50: > 10000 nM

## N[C@](CC1c2ccccc2Oc2ccccc21)(C(=O)O)[C@H]1C[C@@H]1C(=O)O
[4]
  AUC(0-inf): 284 ng·h/mL

## NC(CC1c2ccccc2Oc2ccccc21)(C(=O)O)C1CC1(F)C(=O)O (racemic; form 1)
[8]
  IC50: 4.45 nM

## NC(CC1c2ccccc2Oc2ccccc21)(C(=O)O)C1CC1(F)C(=O)O (racemic; form 2)
[8]
  IC50: 211 nM
